Experimental data taken from US5116748A, “Process for the production of L-alanine dehydrogenase from 78-3 FERM BP-2517” (Toyo Jozo Kabushiki Kaisha, priority 1988, dated 1992).
Like-named read-outs stand apart in the source and are kept apart here.

Test system: L-alanine dehydrogenase from Sporolactobacillus sp. 78-3 (FERM BP-2517)
Assay: Km-Value of L-alanine dehydrogenase (reductive amination, decrease of NADH at 340 nm)
Format: biochemical
Details: purified enzyme
Protocol: Enzyme activity is measured by the following assay method:
The reaction mixture, 1 ml, in a 1 ml quartz cell is pre-incubated at 37° C. for 5 mins. Dilute enzyme solution, 0.02 ml with 50 mM triethanolamine buffer (pH 8.5) is added thereto and the mixture is stirred to initiate the reaction. Decrease of NADH is measured photometrically at 340 nm during the reaction. Enzyme activity is calculated by the following equation on the linear part of the curve: [formula] wherein T=reaction time (min.); X=dilution ratio.

Row | Structure (SMILES) | Km (coenzyme NADH, read-out: Km-Value (NADH)) [mM] | Km (substrate NH4+, read-out: Km-Value (NH4+)) [mM]
1 | NC(=O)C1=CN([C@@H]2O[C@H](COP(=O)(O)OP(=O)(O)OC[C@H]3O[C@@H](n4cnc5c(N)ncnc54)[C@H](O)[C@@H]3O)[C@@H](O)[C@H]2O)C=CC1 [NADH] | 0.011 | 
2 | N [NH4^+] |  | 20
